Experimental data published in publication PMC7447632, “Highly functionalized β-lactams and 2-ketopiperazines as TRPM8 antagonists with antiallodynic activity” (Scientific Reports, 2020).

What was measured:
[1] = test system: MDA-MB-231 (breast adenocarcinoma); test: SRB cytotoxicity assay, MDA-MB-231; format: cell-based; settings: 72 h, SRB; for TGI MDA-MB-231: total growth inhibition; for TGI MDA-MB-231 / CC50: unit inferred; for GI50 / CC50: Homo sapiens, MDA-MB-231; for CC50: read-out: LC50 MDA-MB-231
Method: Human tumor cell lines used in this study were purchased from the ATCC. A-549 (CCL-185), lung carcinoma; HT-29 (HTB-38), colorectal adenocarcinoma; MDA-MB-231 (HTB-26), breast adenocarcinoma; PSN1, pancreas adenocarcinoma.
All cell lines were maintained in DMEM (Dulbecco’s Modified Eagle's Medium) culture medium supplemented with 10% FBS (Fetal Bovine Serum), 100 Units/mL penicillin/streptomycin at 37 °C, 5% CO2 and 95% humidity.
Triplicate cultures were incubated for 72 h in the presence or absence of test compounds in dose–response curves (10 concentrations, typically ranging from 10 to 0.0026 µg/mL). A colorimetric assay using sulforhodamine B (SRB) was adapted for quantitative measurement of cell growth and cytotoxicity. A more detailed information on this assay is provides in the supplementary information. GI50 is the compound concentration that produces 50% inhibition on cell growth as compared to control cells.
In vitro bioassays for the detection of antitumor activity
The aim of this assay is to evaluate the in vitro cytostatic (ability to delay or arrest tumor cell growth) or cytotoxic (ability to kill tumor cells) activity of the samples […]
Name Nº ATCC Species Tissue Characteristics
A549 CCL-185 human lung lung carcinoma (NSCLC)
HT29 HTB-38 human colon colorectal adenocarcinoma
MDA-MB-231 HTB-26 human breast breast adenocarcinoma
PSN1 CRM-CRL-3211 human pancreas pancreas adenocarcinoma […]
A colorimetric assay, using Sulforhodamine B (SRB) reaction has been adapted to provide a quantitative measurement of cell growth and viability (following the technique described by Skehan et al. J. Natl. Cancer Inst. 1990, 82, 1107-1112 […]
This form of assay employs 96-well cell culture microplates following the standards of the American National Standards Institute and the Society for Laboratory […]
used in this study were obtained from the American Type Culture Collection (ATCC) and derive from different types of human cancer.
A549, HT29, MDA-MB-231 and PSN1 cells were maintained in Dulbecco’s
Modified Eagle Medium (DMEM) supplemented with 10% Fetal Bovine Serum (FBS), 2mM L-glutamine, 100 U/mL penicillin, and 100 U/mL streptomycin at 37 °C, 5% CO2 and 98% humidity. For the experiments, cells were harvested from subconfluent cultures using trypsinization and resuspended in fresh medium before counting and […]
A549, HT29, MDA-MB-231 and PSN1 cells were seeded in 96 well microtiter plates, at 5000 cells per well in aliquots of 150 µL, and allowed to attach to the plate surface for 18 hours (overnight) in drug free medium. After that, one control (untreated) plate of each cell line was fixed (as described below) and used for time zero reference value. Culture plates were then treated with test compounds (50 µL aliquots of 4X stock […]
solutions in complete culture medium plus 4% DMSO) using ten 2/5 serial dilutions (concentrations ranging from 10 to 0.003 µg/mL) and triplicate cultures (1% final concentration in DMSO). After 72 hours treatment, the antitumor effect was measured by using the SRB methodology: Briefly, cells were washed twice with PBS, fixed for 15 min in 1% glutaraldehyde solution at room temperature, rinsed twice in PBS, and stained in 0.4% SRB solution for 30 min at room temperature. Cells were then rinsed several times with 1% acetic acid solution and air-dried at room temperature. SRB was then extracted in 10 mM trizma base solution and the absorbance measured in an automated spectrophotometric plate reader at 490 nm.
Effects on cell growth and survival were estimated by applying the NCI algorithm (Boyd MR and Paull KD. Drug Dev. Res. 1995, 34, 91-109, DOI:10.1002/ddr.430340203). The values obtained in triplicate cultures were fitted by nonlinear regression to a four-parameters logistic curve by nonlinear regression analysis. . Using the absorbance measurements [time zero, (Tz), control growth, (C), and test growth in the presence of drug at the ten concentration levels (Ti)], the […]

rTRPM8 = biological target: T1, rTRPM8 (Rattus norvegicus, UniProt Q8R455); test: Patch-clamp electrophysiology, whole cell, HEK293 cells expressing rTRPM8; format: cell-based; settings: for IC50: Patch-clamp, holding potential -60 mV, read-out: IC50 TRPM8 current blockade; for Hill coefficient n: fit of concentration-response curve, -60 mV
T1 construct: expressed in transfected cells; host or cells: HEK293 (stably transfected)
T1 sequence (Q8R455 whole entry): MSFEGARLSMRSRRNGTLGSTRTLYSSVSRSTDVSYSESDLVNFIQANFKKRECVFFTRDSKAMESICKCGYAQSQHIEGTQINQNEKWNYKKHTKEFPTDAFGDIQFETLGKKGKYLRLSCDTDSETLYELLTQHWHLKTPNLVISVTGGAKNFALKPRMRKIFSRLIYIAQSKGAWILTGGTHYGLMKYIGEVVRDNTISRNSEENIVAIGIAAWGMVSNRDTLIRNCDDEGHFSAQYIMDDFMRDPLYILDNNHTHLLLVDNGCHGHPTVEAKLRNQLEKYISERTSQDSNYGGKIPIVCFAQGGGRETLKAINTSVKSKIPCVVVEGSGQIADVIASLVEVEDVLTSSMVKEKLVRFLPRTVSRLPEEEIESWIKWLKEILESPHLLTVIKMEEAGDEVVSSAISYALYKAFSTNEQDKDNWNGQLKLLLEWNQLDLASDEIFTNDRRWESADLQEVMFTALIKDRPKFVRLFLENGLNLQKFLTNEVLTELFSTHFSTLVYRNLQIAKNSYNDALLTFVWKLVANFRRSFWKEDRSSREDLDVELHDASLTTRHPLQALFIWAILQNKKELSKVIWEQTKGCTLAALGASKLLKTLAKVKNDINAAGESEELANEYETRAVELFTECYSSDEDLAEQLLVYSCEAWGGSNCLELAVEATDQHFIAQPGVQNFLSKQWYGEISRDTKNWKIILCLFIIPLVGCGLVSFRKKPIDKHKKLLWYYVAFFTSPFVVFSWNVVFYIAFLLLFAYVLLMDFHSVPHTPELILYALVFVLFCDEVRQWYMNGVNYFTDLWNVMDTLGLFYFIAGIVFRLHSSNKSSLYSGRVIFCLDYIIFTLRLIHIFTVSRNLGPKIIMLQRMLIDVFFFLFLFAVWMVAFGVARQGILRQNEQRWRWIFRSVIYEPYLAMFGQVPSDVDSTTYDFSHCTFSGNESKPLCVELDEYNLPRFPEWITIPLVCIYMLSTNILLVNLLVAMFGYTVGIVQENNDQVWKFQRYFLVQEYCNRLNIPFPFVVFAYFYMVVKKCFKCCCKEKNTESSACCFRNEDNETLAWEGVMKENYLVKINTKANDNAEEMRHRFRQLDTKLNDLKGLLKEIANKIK
Text: The TRPM8 antagonist activity of the enantiopure β-lactams 24a and 29a was further confirmed electrophysiologically by Patch-clamp experiments, using the whole cell configuration in HEK293 cells expressing TRPM8 channels.
The dose–response curve for both compounds was obtained at a holding potential of -60 mV (Supplementary Fig. S4).
Figure 2 Compounds 24a and 29a block TRPM8-mediated responses evoked by menthol in rTRPM8-expressing HEK293 cells. (A, C). I–V curves obtained in HEK293 cells expressing TRPM8 and exposed to vehicle solution (Vehicle; black trace; A,C), 100 µM menthol (red trace; A,C), 100 µM menthol + 10 µM 24a (blue trace; A) or to 100 µM menthol + 10 µM compound 29a (blue trace; C) (B,D), Concentration − response curves for TRPM8 current blockade by compound 24a (B) or compound 29a (D) at a holding voltage of -60 mV. Peak current data were expressed as pA/pF (to facilitate comparison among cells of different size) and expressed as a function of antagonist concentrations. The solid lines represent fits of the experimental data to the following binding isotherm: y = max/(1 + x/EC50)n, where x is the drug concentration and n the Hill coefficient. The fitted values for n were 0.97 ± 0.05 or 0.98 ± 0.6 for compound 24a or 29a, respectively. Each point is the mean ± SD of 8 (for compound 24a) or 9 (for compound 29a) determinations, each obtained in different cells. TEXT PRINTED IN THE PICTURE: (B) 24a: IC50=1,4±1,1 μM | (D) 29a: IC50=0,8±1,2 μM
Electrophysiological recording was carried out 1–3 days after cells seeded. Membrane currents and voltages were recorded by patch clamp using the whole-cell configuration. For whole-cell recordings of HEK-rTRPM8 cells, pipette solution contained (in mM) 150 NaCl, 5 EGTA, 3 MgCl2 and 10 HEPES, adjusted to pH 7.2 with NaOH, and bath solution contained (in mM) 150 NaCl, 6 CsCl, 1.5 CaCl2, 1 MgCl2, 10 D-glucose and 10 HEPES, adjusted to pH 7.4 with NaOH. Data were sampled at 10 kHz (EPC10 amplifier with PatchMaster 2.53 software, HEKA Electronics, Lambrecht, Germany) and low-pass filtered at 3 kHz for analysis (PatchMaster 2.53 and GraphPad Prism 5, Graphpad Software, USA). The series resistance was < 10 MΩ and to minimize voltage errors was compensated to 60–80%. All measurements were performed at 24–25 °C. The TRPM8 response was quantified as the ratio P2/P1, being P2 the second menthol pulse in the presence of the vehicle or antagonist tested, and P1 refers to the first menthol pulse. This paradigm considers the extend of receptor desensitization as the P2/P1 obtained with the vehicle. Thus, the estimated IC50 values are corrected from receptor desensitization.

Question: What does the source list for `C[C@@H]1C(=O)N(C[C@H](Cc2ccccc2)NC(=O)OCc2ccccc2)[C@]1(Cc1ccccc1)C(=O)OCc1ccccc1` [Compound 24a, 4S-Benzyl-4-benzyloxycarbonyl-3S-methyl-1-[(2′S-benzyloxycarbonylamino-3′-phenyl)prop-1′-yl]-2-oxoazetidine]?
Answer: TGI MDA-MB-231 [1]: > 17.3 µM; GI50 [1]: > 17.3 µM; CC50 [1]: > 17.3 µM; Effect on menthol-mediated TRPM8 activity (I-V curve) (rTRPM8; 10 µM compound, 100 µM menthol, +120 mV): important reduction on the menthol-mediated TRPM8 activity; IC50 (rTRPM8; 100 µM menthol): 1.4 µM; Hill coefficient n (rTRPM8): 0.97 ± 0.05

Question: With `C[C@@H]1C(=O)N(C[C@@H](Cc2ccccc2)NC(=O)OCc2ccccc2)[C@]1(Cc1ccccc1)C(=O)OCc1ccccc1` [Compound 29a, 4S-Benzyl-4-benzyloxycarbonyl-3S-methyl-1-[(2′R-benzyloxycarbonylamino-3′-phenyl)prop-1′-yl]-2-oxoazetidine] as the molecule, how does the TGI MDA-MB-231 [1] read?
Answer: Its TGI MDA-MB-231 is greater than 17.3 µM.

Question: What about the GI50 [1] of the same molecule?
Answer: Its GI50 is 12.7 µM.

Question: And the CC50 [1]?
Answer: Its CC50 is greater than 17.3 µM.

Question: And the IC50 (rTRPM8; 100 µM menthol)?
Answer: Its IC50 is 0.8 µM.

Question: And the Hill coefficient n (rTRPM8)?
Answer: Its Hill coefficient n is 0.98 ± 0.6.
